Measurements as given in ChEMBL document CHEMBL1155639, “Synthesis of 16,18-dihydroxycleroda-3,13Z-dien-16,15-olide, (+)-16-hydroxycleroda-3,13Z-dien-16,15-olide, and (-)-hydroxyhalima-5(10),13-dien-16,15-olide from (+)-hardwickiic acid” (2000).

Tested on: Mycobacterium tuberculosis
Test: Antitubercular activity against Mycobacterium tuberculosis at 12.5 ug/mL by TAACF method
Assay type: functional

CC1=CCC[C@H]2[C@](C)(CCC3=CC(=O)OC3O)[C@@H](C)CC[C@]12C (stereo partly specified)
inhibition at 12.5 µg/mL: 85%
